Results from patent US12514832B2, “Methods for using low-dose colchicine after myocardial infarction” (INSTITUT DE CARDIOLOGIE DE MONTREAL, priority 2019, dated 2026).

Test system: patients recruited within 30 days after a myocardial infarction
Test: COLCOT randomized, double-blind, placebo-controlled trial: clinical efficacy end points
Type: in vivo, human
Parameters: Primary efficacy composite endpoint, % of patients with event: concentration or dose not given beside the values
Details: for risk of ischemic cardiovascular events / primary composite efficacy end point versus placebo (in words): 0.5 mg once daily; for Total primary endpoint events, Rate Ratio (95% CI), Negative binomial model: marginal rate ratio
Method: We performed a randomized, double-blind trial involving patients recruited within 30 days after a myocardial infarction. The patients were randomly assigned to receive either low-dose colchicine (0.5 mg once daily) or placebo. A total of 4745 patients were enrolled; 2366 patients were assigned to the colchicine group, and 2379 to the placebo group. Patients were followed for a median of 22.6 months.
The primary efficacy end point was a composite of death from cardiovascular causes, resuscitated cardiac arrest, myocardial infarction, stroke, or urgent hospitalization for angina leading to coronary revascularization. The components of the primary end point and safety were also assessed.
In this randomized, double-blind, placebo-controlled, investigator-initiated trial, we assigned patients in a 1:1 ratio to receive either colchicine (at a dose of 0.5 mg once daily) or placebo. The trial protocol, available at NEJM.org, was designed by a trial steering committee. The protocol was approved by the institutional review board at each of the 167 centers in the 12 countries that participated in the trial (available at NEJM.org). All trial support activities, including project coordination, data management, site monitoring, and statistical oversight and analyses, were performed at the Montreal Health Innovations Coordinating Center. Potential trial end-point events were adjudicated by an independent clinical end-point committee composed of experienced cardiologists and neurologists who were unaware of the trial-group assignments. The trial was overseen by a data and safety monitoring board of independent experts. The trial medication and matching placebo were provided by Pharmascience.
Patients were excluded if they had severe heart failure, a left ventricular ejection fraction of less than 35%, stroke within the previous 3 months, a type 2 index myocardial infarction, coronary-bypass surgery either within the previous 3 years or planned, a history of noncutaneous cancer within the previous 3 years, inflammatory bowel disease or chronic diarrhea, neuromuscular disease or a nontransient creatine kinase level that was greater than three times the upper limit of the normal range (unless due to infarction), clinically significant nontransient hematologic abnormalities, severe renal disease with a serum creatinine level that was greater than two times the upper limit of the normal range; severe hepatic disease, drug or alcohol abuse, current or planned long-term systemic glucocorticoid therapy, or a history of clinically significant sensitivity to colchicine. (Details regarding eligibility criteria are provided herein.)
The primary efficacy end point was a composite of death from cardiovascular causes, resuscitated cardiac arrest, myocardial infarction, stroke, or urgent hospitalization for angina leading to coronary revascularization in a time-to-event analysis.
The secondary end points consisted of the components of the primary efficacy end point; a composite of death from cardiovascular causes, resuscitated cardiac arrest, myocardial infarction, or stroke; and total mortality in time-to-event analyses. Coronary revascularization, hospitalization for heart failure, atrial fibrillation, and deep venous thrombosis or pulmonary embolus were prespecified as exploratory end points in the protocol.
The efficacy analyses were conducted with the use of positively adjudicated data and according to the intention-to-treat principle. The primary end point was compared between the two trial groups with the use of a log-rank test, and the hazard ratio from a Cox proportional-hazards model, with a 95% confidence interval, was calculated. A Cox proportional-hazards model with adjustment for important baseline characteristics was also used as prespecified in the protocol.
The analysis of the primary end point was repeated in the per-protocol population (i.e., patients without major protocol deviations). […]

[1] = ITT, N=2366, first and recurrent events
[2] = colchicine vs placebo, ITT, listed as colchicine
[3] = colchicine vs placebo, per-protocol population
[4] = per-protocol population, N=2260

COc1cc2c(c(OC)c1OC)-c1ccc(OC)c(=O)cc1[C@@H](NC(C)=O)CC2 [Colchicine, colchicine]
risk of ischemic cardiovascular events / primary composite efficacy end point versus placebo (in words): statistically significant lower risk of ischemic cardiovascular events than placebo
risk of ischemic cardiovascular events / primary composite efficacy end point versus placebo (in words) (listed as colchicine): significantly lower percentage of patients with ischemic cardiovascular events than placebo
Time to first primary endpoint, Adjusted Hazard Ratio (95% CI) (Colchicine vs. Placebo, multivariable Cox regression adjusted for age, diabetes, prior revascularization, prior heart failure): 0.78 (0.62-0.98)
Atrial fibrillation, number of patients (ITT, N=2366, 0.5 mg once daily): 36
Atrial fibrillation, percent (ITT, N=2366, 0.5 mg once daily): 1.5%
Death from cardiovascular causes, number of patients (ITT, N=2366, 0.5 mg once daily): 20
Death from cardiovascular causes, percent (ITT, N=2366, 0.5 mg once daily): 0.8%
Death, number of patients (ITT, N=2366, 0.5 mg once daily): 43
Death, percent (ITT, N=2366, 0.5 mg once daily): 1.8%
Deep venous thrombosis or pulmonary embolus, number of patients (ITT, N=2366, 0.5 mg once daily): 10
Deep venous thrombosis or pulmonary embolus, percent (ITT, N=2366, 0.5 mg once daily): 0.4%
Myocardial infarction, number of patients (ITT, N=2366, 0.5 mg once daily): 89
Myocardial infarction, percent (ITT, N=2366, 0.5 mg once daily): 3.8%
Primary composite end point, number of patients (ITT, N=2366, 0.5 mg once daily): 131
Primary composite end point, percent of patients (ITT, N=2366, 0.5 mg once daily): 5.5%
Resuscitated cardiac arrest, number of patients (ITT, N=2366, 0.5 mg once daily): 5
Resuscitated cardiac arrest, percent (ITT, N=2366, 0.5 mg once daily): 0.2%
Secondary composite end point (CV death, resuscitated cardiac arrest, MI, stroke), number of patients (ITT, N=2366, 0.5 mg once daily): 111
Secondary composite end point, percent (ITT, N=2366, 0.5 mg once daily): 4.7%
Stroke, number of patients (ITT, N=2366, 0.5 mg once daily): 5
Stroke, percent (ITT, N=2366, 0.5 mg once daily): 0.2%
Urgent hospitalization for angina leading to revascularization, number of patients (ITT, N=2366, 0.5 mg once daily): 25
Urgent hospitalization for angina leading to revascularization, percent (ITT, N=2366, 0.5 mg once daily): 1.1%
Total number of primary endpoint events (first and recurrent) (ITT, N=2366, 52949 patient-months of follow-up): 154
Number of patients with 0 primary endpoint events [1]: 2235
Number of patients with 1 primary endpoint event [1]: 111
Number of patients with 2 primary endpoint events [1]: 18
Number of patients with 3 primary endpoint events [1]: 1
Number of patients with 4 primary endpoint events [1]: 1
Rate of primary endpoint events per 100 patient-months [1]: 0.29 per 100 patient-months
Atrial fibrillation, Hazard Ratio (95% CI) (colchicine vs placebo, ITT): 0.93 (0.59-1.46)
Death from cardiovascular causes, Hazard Ratio (95% CI) (colchicine vs placebo, ITT): 0.84 (0.46-1.52)
Death, Hazard Ratio (95% CI) (colchicine vs placebo, ITT): 0.98 (0.64-1.49)
Deep venous thrombosis or pulmonary embolus, Hazard Ratio (95% CI) (colchicine vs placebo, ITT): 1.43 (0.54-3.75)
Myocardial infarction, Hazard Ratio (95% CI) (colchicine vs placebo, ITT): 0.91 (0.68-1.21)
Resuscitated cardiac arrest, Hazard Ratio (95% CI) (colchicine vs placebo, ITT): 0.83 (0.25-2.73)
Secondary composite end point, Hazard Ratio (95% CI) (colchicine vs placebo, ITT): 0.85 (0.66-1.10)
Stroke, Hazard Ratio (95% CI) (colchicine vs placebo, ITT): 0.26 (0.10-0.70)
Total primary endpoint events, Hazard Ratio (95% CI), Andersen-Gill model (colchicine vs placebo, ITT): 0.69 (0.54; 0.88)
Total primary endpoint events, Hazard Ratio (95% CI), WLW model 1st Event (colchicine vs placebo, ITT): 0.77 (0.61; 0.96)
Total primary endpoint events, Hazard Ratio (95% CI), WLW model 2nd Event (colchicine vs placebo, ITT): 0.73 (0.48; 1.11)
Total primary endpoint events, Hazard Ratio (95% CI), WLW model 3rd Event (colchicine vs placebo, ITT): 0.64 (0.37; 1.10)
Total primary endpoint events, Hazard Ratio (95% CI), WLW model Average (colchicine vs placebo, ITT): 0.77 (0.61; 0.96)
Urgent hospitalization for angina leading to revascularization, Hazard Ratio (95% CI) (colchicine vs placebo, ITT): 0.50 (0.31-0.81)
Total primary endpoint events, Rate Ratio (95% CI), Negative binomial model (colchicine vs placebo, ITT): 0.66 (0.51; 0.86)
Total primary endpoint events, Rate Ratio (95% CI), Negative binomial model [2]: 0.66
Primary composite end point, Hazard Ratio (95% CI) (colchicine vs placebo, ITT, time to first event): 0.77
Death from cardiovascular causes, Hazard Ratio (95% CI) [2]: 0.84
Myocardial infarction, Hazard Ratio (95% CI) [2]: 0.91
Resuscitated cardiac arrest, Hazard Ratio (95% CI) [2]: 0.83
Secondary composite end point, Hazard Ratio (95% CI) [2]: 0.85
Stroke, Hazard Ratio (95% CI) [2]: 0.26
Urgent hospitalization for angina leading to revascularization, Hazard Ratio (95% CI) [2]: 0.50
Primary endpoint, hazard ratio (colchicine vs placebo, men, per-protocol population): 0.70 (0.52; 0.93)
MI, Hazard Ratio (95% CI) [3]: 0.84 (0.62-1.14)
Primary endpoint, Hazard Ratio (95% CI) [3]: 0.71 (0.56-0.90)
Resuscitated cardiac arrest, Hazard Ratio (95% CI) [3]: 1.00 (0.29-3.46)
Stroke, Hazard Ratio (95% CI) [3]: 0.26 (0.10-0.71)
Urgent hospitalization for angina requiring revascularization, Hazard Ratio (95% CI) [3]: 0.47 (0.28-0.78)
Primary endpoint, Hazard Ratio (95% CI) (colchicine vs placebo, per-protocol population, listed as colchicine): 0.71
Primary efficacy composite endpoint, Hazard ratio (colchicine vs placebo, subgroup Active smoker): 0.93
Primary efficacy composite endpoint, Hazard ratio (colchicine vs placebo, subgroup Female): 0.99
Primary efficacy composite endpoint, Hazard ratio (colchicine vs placebo, subgroup History of diabetes No): 0.85
Primary efficacy composite endpoint, Hazard ratio (colchicine vs placebo, subgroup History of diabetes Yes): 0.65
Primary efficacy composite endpoint, Hazard ratio (colchicine vs placebo, subgroup History of hypertension No): 0.80
Primary efficacy composite endpoint, Hazard ratio (colchicine vs placebo, subgroup History of hypertension Yes): 0.76
Primary efficacy composite endpoint, Hazard ratio (colchicine vs placebo, subgroup Male): 0.70
Primary efficacy composite endpoint, Hazard ratio (colchicine vs placebo, subgroup Non-smoker): 0.90
Primary efficacy composite endpoint, Hazard ratio (colchicine vs placebo, subgroup Previous smoker): 0.59
Primary efficacy composite endpoint, Hazard ratio (colchicine vs placebo, subgroup Prior MI No): 0.68
Primary efficacy composite endpoint, Hazard ratio (colchicine vs placebo, subgroup Prior MI Yes): 1.05
Primary efficacy composite endpoint, Hazard ratio (colchicine vs placebo, subgroup Prior PCI or CABG No): 0.72
Primary efficacy composite endpoint, Hazard ratio (colchicine vs placebo, subgroup Prior PCI or CABG Yes): 0.91
Primary efficacy composite endpoint, Hazard ratio (colchicine vs placebo, subgroup Prior stroke or TIA No): 0.76
Primary efficacy composite endpoint, Hazard ratio (colchicine vs placebo, subgroup Prior stroke or TIA Yes): 1.09
Primary efficacy composite endpoint, Hazard ratio (colchicine vs placebo, subgroup White blood cell count Above median): 0.80
Primary efficacy composite endpoint, Hazard ratio (colchicine vs placebo, subgroup White blood cell count Below median): 0.85
Primary endpoint, hazard ratio (colchicine vs placebo, women, per-protocol population): 0.81 (0.47; 1.41)
MI, % [4]: 3.4%
MI, no. of patients [4]: 77
Primary endpoint, % of patients [4]: 5.1%
Primary endpoint, no. of patients [4]: 115
Resuscitated cardiac arrest, % [4]: 0.2%
Resuscitated cardiac arrest, no. of patients [4]: 5
Stroke, % [4]: 0.2%
Stroke, no. of patients [4]: 5
Urgent hospitalization for angina requiring revascularization, % [4]: 1.0%
Urgent hospitalization for angina requiring revascularization, no. of patients [4]: 22
Primary efficacy composite endpoint, % of patients with event (subgroup Active smoker): 5.4%
Primary efficacy composite endpoint, no. of patients with event (subgroup Active smoker, total 708): 38
Primary efficacy composite endpoint, % of patients with event (subgroup Female): 7.8%
Primary efficacy composite endpoint, no. of patients with event (subgroup Female, total 472): 37
Primary efficacy composite endpoint, % of patients with event (subgroup History of diabetes No): 4.8%
Primary efficacy composite endpoint, no. of patients with event (subgroup History of diabetes No, total 1904): 91
Primary efficacy composite endpoint, % of patients with event (subgroup History of diabetes Yes): 8.7%
Primary efficacy composite endpoint, no. of patients with event (subgroup History of diabetes Yes, total 462): 40
Primary efficacy composite endpoint, % of patients with event (subgroup History of hypertension No): 4.1%
Primary efficacy composite endpoint, no. of patients with event (subgroup History of hypertension No, total 1181): 48
Primary efficacy composite endpoint, % of patients with event (subgroup History of hypertension Yes): 7.0%
Primary efficacy composite endpoint, no. of patients with event (subgroup History of hypertension Yes, total 1185): 83
Primary efficacy composite endpoint, % of patients with event (subgroup Male): 5.0%
Primary efficacy composite endpoint, no. of patients with event (subgroup Male, total 1894): 94
Primary efficacy composite endpoint, % of patients with event (subgroup Non-smoker): 6.0%
Primary efficacy composite endpoint, no. of patients with event (subgroup Non-smoker, total 787): 47
Primary efficacy composite endpoint, % of patients with event (subgroup Previous smoker): 5.3%
Primary efficacy composite endpoint, no. of patients with event (subgroup Previous smoker, total 871): 46
Primary efficacy composite endpoint, % of patients with event (subgroup Prior MI No): 4.3%
Primary efficacy composite endpoint, no. of patients with event (subgroup Prior MI No, total 1996): 85
Primary efficacy composite endpoint, % of patients with event (subgroup Prior MI Yes): 12.4%
Primary efficacy composite endpoint, no. of patients with event (subgroup Prior MI Yes, total 370): 46
Primary efficacy composite endpoint, % of patients with event (subgroup Prior PCI or CABG No): 4.3%
Primary efficacy composite endpoint, no. of patients with event (subgroup Prior PCI or CABG No, total 1947): 83
Primary efficacy composite endpoint, % of patients with event (subgroup Prior PCI or CABG Yes): 11.5%
Primary efficacy composite endpoint, no. of patients with event (subgroup Prior PCI or CABG Yes, total 419): 48
Primary efficacy composite endpoint, % of patients with event (subgroup Prior stroke or TIA No): 5.3%
Primary efficacy composite endpoint, no. of patients with event (subgroup Prior stroke or TIA No, total 2311): 123
Primary efficacy composite endpoint, % of patients with event (subgroup Prior stroke or TIA Yes): 14.5%
Primary efficacy composite endpoint, no. of patients with event (subgroup Prior stroke or TIA Yes, total 55): 8
Primary efficacy composite endpoint, % of patients with event (subgroup White blood cell count Above median): 5.3%
Primary efficacy composite endpoint, no. of patients with event (subgroup White blood cell count Above median, total 637): 34
Primary efficacy composite endpoint, % of patients with event (subgroup White blood cell count Below median): 6.2%
Primary efficacy composite endpoint, no. of patients with event (subgroup White blood cell count Below median (8.64 × 10^3/μL), total 660): 41
